Results reported in article PMC6094432, “Design, Synthesis and Evaluation of Substituted Aryl-2-Nitrovinyl Derivatives as Small Molecules Proteasome Inhibitors” (Iranian Journal of Pharmaceutical Research : IJPR, 2018).
Read-outs that look alike come from different tables or passages of the source.

Experiments:
MCF-7 cells = test: Cell viability (MTT) assay, MCF-7; format: cell-based; conditions: Homo sapiens, read-out: Cell cytotoxicity assay IC50 MCF-7
Protocol: (§1) Human breast cancer (MCF-7), and human prostate cancer (PC-3) cells were cultured in their respective media supplemented with 10% fetal bovine serum (FBS). The cells were cultured at 1 × 10^4 cells per well, in a 96-well plate and incubated for 24-48 h to obtain cell attachments. Afterwards, the cells were treated with different concentrations of test compounds for 48 h and then incubated with 20 µL of 5 mg/mL 3-(4,5-dimethylthiazol-2-yl)-2,5-diphenyl tetrazolium bromide (MTT) solution for 4 h. After aspiration of the MTT solution, 100 µL of DMSO was added to each well to dissolve formazan crystals. The absorbance of each well was measured at the wavelength of 550 nm using an enzyme-linked immunosorbent assay reader. IC50 values were calculated from the curves generated by plotting the percentage of the viable cells versus the test concentration on a logarithmic scale using SigmaPlot 10.0 software.

PC-3 cells = test: Cell viability (MTT) assay, PC-3; format: cell-based; conditions: Homo sapiens, read-out: Cell cytotoxicity assay IC50 PC-3
Protocol: as §1

[1] = biological target: T1, 20S proteasome ChT-L activity (Homo sapiens, UniProt P28074); test: Cell-based 20S proteasome ChT-L inhibition assay in MCF-7 cells
T1 construct: This assay measures the ChT-L protease activity in cultured cells; endogenous in cells; host or cells: MCF-7 and PC-3 cells
Protocol: (§2) Cell-based proteasome inhibition assay
(§3) The effect of the derivatives on the 20S proteasome activity was determined using the 20S proteasome activity assay kit from Sigma (USA). This assay measures the ChT-L protease activity in cultured cells and is based on the detection of the fluorophore R110 after cleavage from the labeled substrate LLVY-R110. MCF-7 and PC-3 cells were pretreated with different concentrations of corresponding compounds and proteasome activities were determined according to the manufacturer′s protocol. Proteasome activity generates strongly green fluorescent R110, which was monitored at an excitation wavelength of 480 nm and emission of […] on a microplate fluorescence reader. All data were calculated by subtracting the blank control.

[2] = biological target: T1, 20S proteasome ChT-L activity; test: Cell-based 20S proteasome ChT-L inhibition assay in PC-3 cells
Protocol: as §2, §3

[3] = MCF7, MCF-7 cells, percent inhibition at 10 µM, ChT-L activity, LLVY-R110 substrate, read-out: 20S proteasome inhibition, Inhibition [%] MCF-7
[4] = MCF-7 cells, ChT-L activity, LLVY-R110 substrate
[5] = PC-3 cells, percent inhibition at 25 µM, ChT-L activity, LLVY-R110 substrate, read-out: 20S proteasome inhibition, Inhibition [%] PC-3
[6] = PC-3 cells, ChT-L activity, LLVY-R110 substrate
[7] = MCF7, MCF-7, MTT, 48 h treatment, mean ± SD of three independent experiments
[8] = PC-3, MTT, 48 h treatment, mean ± SD of three independent experiments

Cc1ccc(C=C(Cc2ccccc2)[N+](=O)[O-])cc1 [Compound 4c, 3-(4-methylphenyl)-2-nitroallylbenzene]
IC50 (MCF-7 cells; MCF7, 48 h): 16.56 ± 0.12 µM | melting point: 105 to 107 °C | IC50 (PC-3 cells; PC-3, 48 h): 62.7 ± 4.21 µM | inhibition at 10 µM [1, 3]: 48.2 ± 2.8% | IC50 [1, 4]: 9.92 ± 0.27 µM | inhibition at 25 µM [2, 5]: 50.8 ± 2.7% | IC50 [2, 6]: 30.1 ± 3.74 µM

Cc1ccc(C=C(CC(C)C)[N+](=O)[O-])cc1 [Compound 6a, 1-methyl-4-(4-methyl-2-nitropent-1-enyl)benzene]
IC50 (MCF-7 cells; MCF7, 48 h): 24.08 ± 0.18 µM | IC50 (PC-3 cells; PC-3, 48 h): 73.1 ± 3.63 µM | inhibition at 10 µM [1, 3]: 43.9 ± 0.98% | IC50 [1, 4]: 13.7 ± 4.64 µM | inhibition at 25 µM [2, 5]: 40.3 ± 1.2% | IC50 [2, 6]: 36.1 ± 4.1 µM

COc1ccc(C=C(CC(C)C)[N+](=O)[O-])cc1 [Compound 6b, 1-methoxy-4-(4-methyl-2-nitropent-1-enyl)benzene]
IC50 (MCF-7 cells; MCF7, 48 h): 5.27 ± 0.03 µM | IC50 (PC-3 cells; PC-3, 48 h): 60.07 ± 0.01 µM | inhibition at 10 µM [1, 3]: 45.7 ± 3.6% | IC50 [1, 4]: 3.82 ± 0.15 µM | inhibition at 25 µM [2, 5]: 50.2 ± 3.5% | IC50 [2, 6]: 20.5 ± 1.09 µM

CN(C)c1ccc(C=C[N+](=O)[O-])cc1 [Compound 1e, N, N-dimethyl-4-(2-nitrovinyl)benzenamine]
IC50 (MCF-7 cells; [7]): 43.9 ± 1.27 µM | IC50 (PC-3 cells; [8]): 188 ± 10.3 µM | IC50 [1, 4]: > 50 µM | IC50 [2, 6]: > 50 µM

O=[N+]([O-])C(=Cc1ccccc1)CO [Compound 2a, 2-Nitro-3-phenylprop-2-en-1-ol]
IC50 (MCF-7 cells; MCF7, 48 h): 2.4 ± 0.08 µM | IC50 (PC-3 cells; PC-3, 48 h): 29.27 ± 0.12 µM | inhibition at 10 µM [1, 3]: 90.3 ± 5% | IC50 [1, 4]: 1.7 ± 0.02 µM | inhibition at 25 µM [2, 5]: 72.4 ± 2.2% | IC50 [2, 6]: 21.7 ± 1.17 µM

COc1ccc(C=C(CO)[N+](=O)[O-])cc1 [Compound 2d, 2-Nitro-3-(4-methoxyphenyl)prop-2-en-1-ol]
IC50 (MCF-7 cells; MCF7, 48 h): 1.17 ± 0.04 µM | IC50 (PC-3 cells; PC-3, 48 h): 32.3 ± 2.04 µM | inhibition at 10 µM [1, 3]: 85 ± 6.1% | IC50 [1, 4]: 0.71 ± 0.01 µM | inhibition at 25 µM [2, 5]: 86.3 ± 5% | IC50 [2, 6]: 17.8 ± 1.05 µM

O=[N+]([O-])C=Cc1ccccc1 [Compound 1a, (2-nitrovinyl)benzene]
IC50 (MCF-7 cells; [7]): 5.23 ± 0.17 µM | IC50 (PC-3 cells; [8]): 39.9 ± 0.97 µM | inhibition at 10 µM [1, 3]: 85.2 ± 5.9% | IC50 [1, 4]: 3.67 ± 0.27 µM | inhibition at 25 µM [2, 5]: 78.6 ± 3.2% | IC50 [2, 6]: 38 ± 3.24 µM

CN(C)c1ccc(C=C(Cc2ccccc2)[N+](=O)[O-])cc1 [Compound 4e, N, N-dimethyl-4-(2-nitro-3-phenylprop-1-enyl)benzenamine]
IC50 (MCF-7 cells; MCF7, 48 h): 20.85 ± 0.09 µM | melting point: 110 to 113 °C | IC50 (PC-3 cells; PC-3, 48 h): 332 ± 12.3 µM | IC50 [1, 4]: > 50 µM | IC50 [2, 6]: > 50 µM

COc1ccc(C=C[N+](=O)[O-])cc1 [Compound 1d, 1-methoxy-4-(2-nitrovinyl) benzene]
IC50 (MCF-7 cells; [7]): 2.2 ± 0.06 µM | IC50 (PC-3 cells; [8]): 60.3 ± 5.11 µM | inhibition at 10 µM [1, 3]: 89.6 ± 4.4% | IC50 [1, 4]: 1.21 ± 0.07 µM | inhibition at 25 µM [2, 5]: 84.5 ± 3.9% | IC50 [2, 6]: 29.4 ± 2.91 µM

O=[N+]([O-])C(=Cc1ccc(Cl)cc1)CO [Compound 2b, 2-Nitro-3-(4-chlorophenyl)prop-2-en-1-ol]
IC50 (MCF-7 cells; MCF7, 48 h): 17.34 ± 0.13 µM | IC50 (PC-3 cells; PC-3, 48 h): 20.79 ± 0.01 µM | inhibition at 10 µM [1, 3]: 44.1 ± 2.8% | IC50 [1, 4]: 10.3 ± 0.17 µM | inhibition at 25 µM [2, 5]: 40.3 ± 1.9% | IC50 [2, 6]: 22.02 ± 0.09 µM

O=[N+]([O-])C(=Cc1ccccc1)Cc1ccccc1 [Compound 4a, 3-(phenyl)-2-nitroallylbenzene]
IC50 (MCF-7 cells; MCF7, 48 h): 10.7 ± 0.16 µM | IC50 (PC-3 cells; PC-3, 48 h): 48.8 ± 2.71 µM | inhibition at 10 µM [1, 3]: 54.9 ± 4.3% | IC50 [1, 4]: 7.56 ± 0.11 µM | inhibition at 25 µM [2, 5]: 42.7 ± 3.6% | IC50 [2, 6]: 39.6 ± 16.3 µM

COc1ccc(C=C(Cc2ccccc2)[N+](=O)[O-])cc1 [Compound 4d, 3-(4-methoxyphenyl)-2-nitroallylbenzene]
IC50 (MCF-7 cells; MCF7, 48 h): 4.72 ± 0.07 µM | melting point: 53 to 56 °C | IC50 (PC-3 cells; PC-3, 48 h): 79.6 ± 4.6 µM | inhibition at 10 µM [1, 3]: 60.4 ± 4.1% | IC50 [1, 4]: 3.57 ± 0.13 µM | inhibition at 25 µM [2, 5]: 54.4 ± 3.3% | IC50 [2, 6]: 42.8 ± 5.11 µM

O=[N+]([O-])C(=Cc1ccc(Cl)cc1)Cc1ccccc1 [Compound 4b, 3-(4-chlorophenyl)-2-nitroallylbenzene]
IC50 (MCF-7 cells; MCF7, 48 h): 15.9 ± 0.2 µM | melting point: 98 to 100 °C | IC50 (PC-3 cells; PC-3, 48 h): 70.74 ± 0.08 µM | inhibition at 10 µM [1, 3]: 50.4 ± 3.9% | IC50 [1, 4]: 11.1 ± 0.17 µM | inhibition at 25 µM [2, 5]: 63.9 ± 4.4% | IC50 [2, 6]: 40.22 ± 0.07 µM

Cc1ccc(C=C(CO)[N+](=O)[O-])cc1 [Compound 2c, 2-Nitro-3-(4-tolyl)prop-2-en-1-ol]
IC50 (MCF-7 cells; MCF7, 48 h): 5.08 ± 0.05 µM | melting point: 52 to 54 °C | IC50 (PC-3 cells; PC-3, 48 h): 46.6 ± 6.72 µM | inhibition at 10 µM [1, 3]: 93.4 ± 5.2% | IC50 [1, 4]: 2.82 ± 0.06 µM | inhibition at 25 µM [2, 5]: 87 ± 4.1% | IC50 [2, 6]: 25.9 ± 2.37 µM

Cc1ccc(C=C[N+](=O)[O-])cc1 [Compound 1c, 1-methyl-4-(2-nitrovinyl)benzene]
IC50 (MCF-7 cells; [7]): 9.63 ± 0.25 µM | IC50 (PC-3 cells; [8]): 70.4 ± 4.33 µM | inhibition at 10 µM [1, 3]: 88.9 ± 4.6% | IC50 [1, 4]: 5.23 ± 0.15 µM | inhibition at 25 µM [2, 5]: 80.1 ± 5.4% | IC50 [2, 6]: 36 ± 2.14 µM

O=[N+]([O-])C=Cc1ccc(Cl)cc1 [Compound 1b, 1-chloro-4-(2-nitrovinyl)benzene]
IC50 (MCF-7 cells; [7]): 7.11 ± 0.22 µM | IC50 (PC-3 cells; [8]): 78.4 ± 3.22 µM | inhibition at 10 µM [1, 3]: 93.9 ± 2.4% | IC50 [1, 4]: 5.63 ± 0.39 µM | inhibition at 25 µM [2, 5]: 84.3 ± 2.7% | IC50 [2, 6]: 48 ± 5.39 µM

CC(C)C[C@H](NC(=O)[C@H](Cc1ccccc1)NC(=O)c1cnccn1)B(O)O [Bortezomib, bortezomib, reference compound]
IC50 (MCF-7 cells; MCF7, 48 h): 0.04 ± 0.01 µM | IC50 (PC-3 cells; PC-3, 48 h): 0.26 ± 0.02 µM | inhibition at 10 µM ([1]; MCF7, read-out: 20S proteasome inhibition, Inhibition [%] MCF-7): 86.7 ± 5.1% | inhibition at 25 µM ([2]; PC-3, read-out: 20S proteasome inhibition, Inhibition [%] PC-3): 74 ± 4.6%
